# In PubChem BioAssay AID2060486 (Molecular Pharmacology Branch, DTP, NCI, 2025):
# Where “and” joins values, the source holds several entries; their conditions need not be identical. Identical values can stand only once.
# System: IGROV1 complex spheroids (HUVEC, MSC), viability % test/control
# Assay: Anticancer human tumor IGROV1 cell line growth inhibition [GQUAD];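 further: spheroids exposed to compounds for 7 days before readout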
# Details: for viability, T/C: stronger effect = lower value
# Source text: DNA G-quadruplex Stabilizer Agents in Combinations in Complex Spheroids
# A high-throughput screen of multi-cell type tumor spheroids was designed to identify active combinations of DNA G-quadruplex stabilizer agents and targeted small molecules. Complex spheroids include a stromal component modeled by human endothelial cells (HUVEC) and fibroblasts modeled by human mesenchymal stem cells (MSCs). The concentration ranges selected for each drug and investigational agent were based upon clinically achievable concentrations if the clinical Cmax of the agent was known.
# Compounds. The drugs and investigational agents: pidnarulex (CX-5461; NSC782164), APTO-253 (NSC789042), BRACO-19 (NSC847499), peposertib (NSC802822), ceralasertib (NSC780249), elimusertib (NSC800525), camonsertib (NSC841442), AZD-1390 (NSC803789), olaparib (NSC753686), talazoparib (NSC767125), ART-558 (NSC835418), sotorasib (NSC818433), MRTX-1133 (NSC836407), SN-38 (NSC673596), topotecan (NSC609699), etoposide (NSC141540), doxorubicin (NSC123127), gemcitabine (NSC613327), 5-fluorouracil (NSC19893), paclitaxel (NSC125973), vemurafenib (NSC761431), panobinostat (NSC761190), R-306465 (JNJ-16241199; NSC773264), adavosertib (NSC754352), TP-3654 (NSC805149), carboplatin (NSC241240), KSQ-4279 (NSC840948), and staurosporine (NSC755774) were obtained from the National Cancer Institute (NCI) Developmental Therapeutics Program Chemical Repository (34). The FDA-approved anticancer drug set is available from the NCI Developmental Therapeutics Program. […] The stock solutions were prepared in dimethyl sulfoxide (DMSO, Sigma-Aldrich, St. Louis, MO, cat. D2650) at 800-fold the tested concentration and stored at -70 degrees C prior to their use. All drugs and investigational agents were tested over a range starting from a high concentration at or near the clinical Cmax and decreasing in half-log increments. If the clinical Cmax for an agent had not been determined, the highest concentration tested was 10 microM.
# 2.3 Cell Culture. All cells were maintained in an incubator at 37 degrees C and 5% CO2 with 95% humidity. The PDC lines were cultured according to standard operating procedures established by the NCI PDMR. All PDCs were thawed and cultured in Matrigel-coated flasks prepared with a working solution of 1X Ham's F-12 nutrient mix, without supplementation (Invitrogen, cat. 11765054), 100 U/mL penicillin-streptomycin (Invitrogen, cat. 15140122), and 2.5% Matrigel (Corning Inc., cat. 354248) for the first three passages. The 857933-349-R-J2-PDC line was cultured in 6C/Colon 1B media, which includes advanced DMEM/F-12 (Thermo Fisher Scientific, cat. 12634028), 10 mM HEPES (Thermo Fisher Scientific, cat. 15630080), 1X GlutaMAX supplement (Thermo Fisher Scientific, cat. 35050061), 0.1 mg/mL primocin (InvivoGen, cat. ant-pm-2), 10% defined fetal bovine serum, heat inactivated (HyClone Laboratories Inc., cat. SH30070.03HI), 50% L-WRN conditioned media (ATCC, cat. CRL-3276), 1.25 mM N-Acetyl-L-cysteine (Sigma-Aldrich, cat. A9165), 10 mM nicotinamide (Sigma-Aldrich, cat. N0636), 1X B-27 supplement (Thermo Fisher Scientific, cat. 17504044), 1X N-2 supplement (Thermo Fisher Scientific, cat. 17502048), 10 microM Y-27632 dihydrochloride (Tocris Bioscience, cat. 1254), and 50 ng/mL human EGF recombinant protein (Thermo Fisher Scientific, cat. PHG0311). The 485176-168-R4-J1-PDC line was cultured in Panc media, which includes all 6C/Colon 1B media components plus 100 ng/mL human FGF-10 (Thermo Fisher Scientific, cat. 100-26), 500 nM SB-431542 (Selleckchem, cat. S1067), and gastrin (Tocris, cat. 3006).
# […]
compound,measurement,setting,value
Nc1ccn(C2OC(CO)C(O)C2(F)F)c(=O)n1 (stereo not given),"viability, T/C",compound 0.0316 µM,12.1% and 11.8% and 8.43%
same,"viability, T/C",compound 0.1 µM,5.96% and 5.24% and 5.38%
same,"viability, T/C",compound 0.316 µM,5.74% and 5.8% and 4.72%
same,"viability, T/C",compound 1 µM,6.33% and 6.36% and 4.79%
same,"viability, T/C",compound 3.16 µM,6.11% and 5.6% and 4.26%
same,"viability, T/C",compound 10 µM,5.62% and 5.26% and 4.2%
same,IC50,curve of compound,< 31.6 nM
Cc1cccc(N(C)C(=O)C2C(O)CCN2c2nc(C)cc(C(F)(F)F)c2C#N)c1 (stereo not given),"viability, T/C",compound 0.0316 µM,85.7% and 108% and 109%
same,"viability, T/C",compound 0.1 µM,86.3% and 92.3% and 87.3%
same,"viability, T/C",compound 0.316 µM,100% (2×) and 103%
same,"viability, T/C",compound 1 µM,87.2% and 85.6% and 91%
same,"viability, T/C",compound 3.16 µM,89.7% and 99.7% and 89%
same,"viability, T/C",compound 10 µM,88.3% and 93.8% and 78%
same,IC50,curve of compound,> 10000 nM
CC[C@@]1(O)C(=O)OCc2c1cc1n(c2=O)Cc2cc3c(CN(C)C)c(O)ccc3nc2-1,"viability, T/C",compound 0.000999 µM,107% and 86.8% and 96.1%
same,"viability, T/C",compound 0.00316 µM,92.1% and 95.8% and 83%
same,"viability, T/C",compound 0.00999 µM,83.8% and 92.3% and 80.7%
same,"viability, T/C",compound 0.0316 µM,42.3% and 42.6% and 30.4%
same,"viability, T/C",compound 0.0999 µM,10.7% and 11.3% and 11%
same,"viability, T/C",compound 0.316 µM,11.4% and 10.2% and 9.99%
same,IC50,curve of compound,24.8 nM and 26.6 nM and 20.1 nM
CC1COCCN1c1cc(C2(S(C)(=N)=O)CC2)nc(-c2ccnc3[nH]ccc23)n1 (stereo not given),"viability, T/C",compound 0.0316 µM,105% and 96.1% and 78.7%
same,"viability, T/C",compound 0.1 µM,73.3% and 84.4% and 94.9%
same,"viability, T/C",compound 0.316 µM,95.4% and 94.3% and 89.6%
same,"viability, T/C",compound 1 µM,59.5% and 44.8% and 50.7%
same,"viability, T/C",compound 3.16 µM,12.6% and 14.1% and 58.1%
same,"viability, T/C",compound 10 µM,7% and 6.85% and 8.5%
same,IC50,curve of compound,1260 nM and 881 nM and 2970 nM
CCCS(=O)(=O)Nc1ccc(F)c(C(=O)c2c[nH]c3ncc(-c4ccc(Cl)cc4)cc23)c1F + Cc1[nH]c2ccc(F)cc2c1-c1nc2c3cccnc3c3ncccc3c2[nH]1,IC50,"curve of first compound, second compound 0.0316 µM",4760 nM
same,IC50,"curve of first compound, second compound 0.1 µM",5340 nM
same,IC50,"curve of first compound, second compound 0.316 µM",1390 nM
same,IC50,"curve of first compound, second compound 1 µM",< 31.6 nM
same,IC50,"curve of first compound, second compound 3.16 µM",< 31.6 nM
same,IC50,"curve of first compound, second compound 10 µM",< 31.6 nM
same,"viability, T/C","second compound 0.0316 µM, first compound 0.0316 µM",97.9%
same,"viability, T/C","second compound 0.0316 µM, first compound 0.1 µM",95.9%
same,"viability, T/C","second compound 0.0316 µM, first compound 0.316 µM",98.4%
same,"viability, T/C","second compound 0.0316 µM, first compound 1 µM",59.4%
same,"viability, T/C","second compound 0.0316 µM, first compound 3.16 µM",80.5%
same,"viability, T/C","second compound 0.0316 µM, first compound 10 µM",19.3%
same,"viability, T/C","second compound 0.1 µM, first compound 0.0316 µM",104%
same,"viability, T/C","second compound 0.1 µM, first compound 0.1 µM",91.6%
same,"viability, T/C","second compound 0.1 µM, first compound 0.316 µM",77.5%
same,"viability, T/C","second compound 0.1 µM, first compound 1 µM",64.8%
same,"viability, T/C","second compound 0.1 µM, first compound 3.16 µM",82.1%
same,"viability, T/C","second compound 0.1 µM, first compound 10 µM",11.7%
same,"viability, T/C","second compound 0.316 µM, first compound 0.0316 µM",86.6%
same,"viability, T/C","second compound 0.316 µM, first compound 0.1 µM",81.1%
same,"viability, T/C","second compound 0.316 µM, first compound 0.316 µM",81.4%
same,"viability, T/C","second compound 0.316 µM, first compound 1 µM",53.2%
same,"viability, T/C","second compound 0.316 µM, first compound 3.16 µM",32.3%
same,"viability, T/C","second compound 0.316 µM, first compound 10 µM",2.23%
same,"viability, T/C","second compound 1 µM, first compound 0.0316 µM",4.32%
same,"viability, T/C","second compound 1 µM, first compound 0.1 µM",3.48%
same,"viability, T/C","second compound 1 µM, first compound 0.316 µM",3.41%
same,"viability, T/C","second compound 1 µM, first compound 1 µM",3.93%
same,"viability, T/C","second compound 1 µM, first compound 3.16 µM",4.28%
same,"viability, T/C","second compound 1 µM, first compound 10 µM",3%
same,"viability, T/C","second compound 3.16 µM, first compound 0.0316 µM",3.26%
same,"viability, T/C","second compound 3.16 µM, first compound 0.1 µM",3.6%
same,"viability, T/C","second compound 3.16 µM, first compound 0.316 µM",3.61%
same,"viability, T/C","second compound 3.16 µM, first compound 1 µM",3.81%
same,"viability, T/C","second compound 3.16 µM, first compound 3.16 µM",3.5%
same,"viability, T/C","second compound 3.16 µM, first compound 10 µM",2.72%
same,"viability, T/C","second compound 10 µM, first compound 0.0316 µM",3.29%
same,"viability, T/C","second compound 10 µM, first compound 0.1 µM",3.66%
same,"viability, T/C","second compound 10 µM, first compound 0.316 µM",4.63%
same,"viability, T/C","second compound 10 µM, first compound 1 µM",3.69%
same,"viability, T/C","second compound 10 µM, first compound 3.16 µM",3.96%
same,"viability, T/C","second compound 10 µM, first compound 10 µM",2.93%
